{"source": "paper PMC6691772", "about": "“Novel phthalimide based analogues: design, synthesis, biological evaluation, and molecular docking studies” (Journal of Enzyme Inhibition and Medicinal Chemistry, 2019)", "key": {"[1]": {"test_system": "P. aeruginosa RCMB 010043", "assay": "Minimum inhibitory concentration, modified agar well diffusion", "type": "cell-based", "conditions": "Pseudomonas aeruginosa, RCMB010043, mean of three values, read-out: MIC (Mean ± SEM)"}, "[2]": {"test_system": "human liver cancer cell line (HepG-2)", "assay": "MTT anticancer assay", "type": "cell-based", "conditions": "HepG2, HePG-2 cancer liver cell line, mean of three values, read-out: IC50 (Mean ± SEM)"}, "VEGFR-2": {"target": "VEGFR-2 (Homo sapiens, UniProt P35968)", "sequence (P35968 20-1356)": "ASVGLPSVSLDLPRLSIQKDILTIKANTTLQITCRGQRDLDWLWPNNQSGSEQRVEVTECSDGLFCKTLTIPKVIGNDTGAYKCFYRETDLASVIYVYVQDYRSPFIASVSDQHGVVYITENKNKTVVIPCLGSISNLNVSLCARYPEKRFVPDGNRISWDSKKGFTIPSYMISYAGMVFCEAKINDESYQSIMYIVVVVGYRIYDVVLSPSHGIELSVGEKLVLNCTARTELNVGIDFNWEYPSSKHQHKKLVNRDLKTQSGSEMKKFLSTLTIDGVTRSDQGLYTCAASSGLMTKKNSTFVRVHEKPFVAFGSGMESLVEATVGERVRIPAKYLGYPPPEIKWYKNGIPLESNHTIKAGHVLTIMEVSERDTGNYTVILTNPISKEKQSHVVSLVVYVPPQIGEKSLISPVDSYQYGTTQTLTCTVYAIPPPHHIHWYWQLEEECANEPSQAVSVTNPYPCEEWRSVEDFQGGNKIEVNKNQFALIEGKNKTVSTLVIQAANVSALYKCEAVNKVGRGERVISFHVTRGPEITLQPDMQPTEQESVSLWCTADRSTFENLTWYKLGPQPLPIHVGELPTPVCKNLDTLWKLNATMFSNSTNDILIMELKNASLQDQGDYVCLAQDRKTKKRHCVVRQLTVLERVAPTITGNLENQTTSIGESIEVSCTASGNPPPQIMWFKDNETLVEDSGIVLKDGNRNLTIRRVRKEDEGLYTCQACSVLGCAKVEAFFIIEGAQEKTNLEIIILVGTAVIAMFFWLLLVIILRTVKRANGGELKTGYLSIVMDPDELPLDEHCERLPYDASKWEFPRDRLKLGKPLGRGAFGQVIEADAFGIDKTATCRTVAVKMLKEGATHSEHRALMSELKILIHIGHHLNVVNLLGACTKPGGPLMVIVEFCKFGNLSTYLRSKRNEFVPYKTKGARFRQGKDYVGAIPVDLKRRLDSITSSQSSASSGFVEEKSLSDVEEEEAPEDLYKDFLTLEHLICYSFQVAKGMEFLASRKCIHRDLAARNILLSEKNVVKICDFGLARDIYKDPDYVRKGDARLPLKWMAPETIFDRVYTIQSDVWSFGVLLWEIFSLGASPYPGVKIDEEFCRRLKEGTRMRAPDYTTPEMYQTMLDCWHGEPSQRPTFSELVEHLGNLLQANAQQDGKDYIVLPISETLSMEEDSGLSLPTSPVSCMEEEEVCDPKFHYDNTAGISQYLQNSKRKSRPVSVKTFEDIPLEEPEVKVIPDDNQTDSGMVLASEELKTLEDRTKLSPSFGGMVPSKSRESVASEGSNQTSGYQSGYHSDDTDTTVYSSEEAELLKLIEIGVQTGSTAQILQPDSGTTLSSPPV", "assay": "In-vitro enzyme assay on VEGFR-2", "type": "biochemical", "conditions": "read-out: IC50 (Mean ± SEM)"}, "[3]": {"test_system": "(THLE-2) normal liver cell line", "assay": "Cytotoxic screening on normal liver cells", "type": "cell-based", "conditions": "Homo sapiens, mean of three values, read-out: IC50 (Mean ± SEM)"}, "S. pneumonia RCMB 010010 [4]": {"test_system": "S. pneumonia RCMB 010010", "assay": "Minimum inhibitory concentration, modified agar well diffusion", "type": "cell-based", "conditions": "Streptococcus pneumoniae, RCMB010010, mean of three values, read-out: MIC (Mean ± SEM)"}, "C. albicans RCMB 005036": {"test_system": "C. albicans RCMB 005036", "assay": "Agar well diffusion, inhibition zone", "type": "cell-based, Candida albicans", "design": "key: –: -: No activity under the screening conditions", "conditions": "1 mg/mL, mean of three values"}, "B. subtilis RCMB 010067 [5]": {"test_system": "B. subtilis RCMB 010067", "assay": "Agar well diffusion, inhibition zone", "type": "cell-based, Bacillus subtilis", "design": "key to Mean diameter of inhibition zone (Mean ± SEM): –: -: No activity under the screening conditions", "conditions": "mean of three values"}, "[6]": {"test_system": "P. aeruginosa RCMB 010043", "assay": "Agar well diffusion, inhibition zone", "type": "cell-based, Pseudomonas aeruginosa", "design": "key to Mean diameter of inhibition zone (Mean ± SEM): –: -: No activity under the screening conditions", "conditions": "mean of three values"}, "S. pneumonia RCMB 010010 [7]": {"test_system": "S. pneumonia RCMB 010010", "assay": "Agar well diffusion, inhibition zone", "type": "cell-based, Streptococcus pneumoniae", "design": "key to Mean diameter of inhibition zone (Mean ± SEM): –: -: No activity under the screening conditions", "conditions": "mean of three values"}, "E. coli RCMB 010052 [8]": {"test_system": "E. coli RCMB 010052", "assay": "Agar well diffusion, inhibition zone", "type": "cell-based, Escherichia coli", "design": "key to Mean diameter of inhibition zone (Mean ± SEM): –: -: No activity under the screening conditions", "conditions": "mean of three values"}, "E. coli DNA gyrase B": {"target": "E. coli DNA gyrase B (Escherichia coli, UniProt P0AES6)", "assay": "In-vitro enzyme assay on DNA gyrase B", "type": "biochemical"}, "A. fumigatus RCMB 002568 [9]": {"test_system": "A. fumigatus RCMB 002568", "assay": "Agar well diffusion, inhibition zone", "type": "cell-based, Aspergillus fumigatus", "design": "key to Mean diameter of inhibition zone (Mean ± SEM): –: -: No activity under the screening conditions", "conditions": "mean of three values"}, "E. coli RCMB 010052 [10]": {"test_system": "E. coli RCMB 010052", "assay": "Minimum inhibitory concentration, modified agar well diffusion", "type": "cell-based", "conditions": "Escherichia coli, RCMB010052, mean of three values, read-out: MIC (Mean ± SEM)"}, "A. fumigatus RCMB 002568 [11]": {"test_system": "A. fumigatus RCMB 002568", "assay": "Minimum inhibitory concentration, modified agar well diffusion", "type": "cell-based", "conditions": "Aspergillus fumigatus, RCMB002568, mean of three values, read-out: MIC (Mean ± SEM)"}, "B. subtilis RCMB 010067 [12]": {"test_system": "B. subtilis RCMB 010067", "assay": "Minimum inhibitory concentration, modified agar well diffusion", "type": "cell-based", "conditions": "Bacillus subtilis, RCMB010067, mean of three values, read-out: MIC (Mean ± SEM)"}, "[13]": {"test_system": "tested bacterial and fungal strains", "assay": "Antimicrobial screening, summary over all tested strains", "type": "cell-based", "conditions": "1 mg/mL", "description": "All bacterial and fungal strains were received from the culture collection of the Regional Center for Mycology and Biotechnology (RCMB), Al-Azhar University, Cairo, Egypt. All target derivatives were screened in-vitro opposite to various kinds of bacteria, Gram-positive bacteria (Streptococcus pneumoniae and Bacillus subtilis) and Gram-negative bacteria (Pseudomonas aeruginosa and Escherichia coli) and for their Antifungal activities against Aspergillus fumigatus and Candida albicans, respectively. Ampicillin and gentamycin were used as standard antibacterial drugs while amphotericin B was used as reference antifungal drug. The diameter of inhibition zone (mm) was measured for the biological activity using the diffusion technique. The promising compounds were further investigated to evaluate their antimicrobial activity expressed in terms of minimum inhibitory concentration (MIC) using the modified agar well diffusion method.\nThe newly prepared targets were subjected for in-vitro antibacterial screening against Gram-positive bacteria (Streptococcus pneumonia and Bacillus subtilis) and Gram-negative bacteria (Pseudomonas aeruginosa and Escherichia coli). […] The compounds’ solutions of concentrations (1 mg/mL) were evaluated against the different microorganism’s and the inhibition zone (IZ) used diameter in mm for the biologically activity (agar well diffusion method)."}}, "data": [{"smiles": "NC1=NNC(=O)C1=NNN1C(=O)c2ccccc2C1=O", "note": "[Compound 4, 2-(2-(3-Amino-5-oxo-1H-pyrazol-4(5H)-ylidene)hydrazinyl)isoindoline-1,3-dione]", "values": [{"measurement": "MIC", "setting": "[1]", "result": "0.98 ± 0.02", "unit": "µg/mL"}, {"measurement": "IC50", "setting": "[2]", "result": "4.22 ± 1.04", "unit": "µg/mL"}, {"measurement": "IC50", "setting": "VEGFR-2", "result": 90, "unit": "nM"}, {"measurement": "IC50", "setting": "[3]", "result": "874.31 ± 0.22", "unit": "µg/mL"}, {"measurement": "MIC", "setting": "S. pneumonia RCMB 010010 [4]", "result": "1.95 ± 0.23", "unit": "µg/mL"}, {"measurement": "Mean diameter of inhibition zone (Mean ± SEM)", "setting": "C. albicans RCMB 005036", "result": "–"}, {"measurement": "zone of inhibition at 1000 µg/mL", "setting": "B. subtilis RCMB 010067 [5]; Bacillus subtilis, RCMB010067, 1 mg/mL, read-out: Mean diameter of inhibition zone (Mean ± SEM)", "result": "25.1 ± 0.5", "unit": "mm"}, {"measurement": "zone of inhibition at 1000 µg/mL", "setting": "[6]; Pseudomonas aeruginosa, RCMB010043, 1 mg/mL, read-out: Mean diameter of inhibition zone (Mean ± SEM)", "result": "19.2 ± 0.5", "unit": "mm"}, {"measurement": "zone of inhibition at 1000 µg/mL", "setting": "S. pneumonia RCMB 010010 [7]; Streptococcus pneumoniae, RCMB010010, 1 mg/mL, read-out: Mean diameter of inhibition zone (Mean ± SEM)", "result": "23 ± 0.4", "unit": "mm"}, {"measurement": "zone of inhibition at 1000 µg/mL", "setting": "E. coli RCMB 010052 [8]; Escherichia coli, RCMB010052, 1 mg/mL, read-out: Mean diameter of inhibition zone (Mean ± SEM)", "result": "24.5 ± 0.3", "unit": "mm"}, {"measurement": "IC50", "setting": "E. coli DNA gyrase B", "result": "340 ± 630", "unit": "nM"}, {"measurement": "zone of inhibition at 1000 µg/mL", "setting": "A. fumigatus RCMB 002568 [9]; Aspergillus fumigatus, RCMB002568, 1 mg/mL, read-out: Mean diameter of inhibition zone (Mean ± SEM)", "result": "23.1 ± 0.5", "unit": "mm"}, {"measurement": "MIC", "setting": "E. coli RCMB 010052 [10]", "result": "0.49 ± 0.39", "unit": "µg/mL"}, {"measurement": "melting point", "result": "289 to 290", "unit": "°C"}, {"measurement": "MIC", "setting": "A. fumigatus RCMB 002568 [11]", "result": "1.95 ± 0.28", "unit": "µg/mL"}, {"measurement": "MIC", "setting": "B. subtilis RCMB 010067 [12]", "result": "0.98 ± 0.42", "unit": "µg/mL"}]}, {"smiles": "Nc1c(C(=O)c2ccccc2)cnc2c(N=NN3C(=O)c4ccccc4C3=O)c(O)nn12", "note": "[Compound 14, 2-[(7-Amino-6-benzoyl-2-hydroxypyrazolo[1,5-a]pyrimidin-3-yl)diazenyl]-1H-isoindole-1,3(2H)-dione]", "values": [{"measurement": "IC50", "setting": "[2]", "result": "34.8 ± 1.26", "unit": "µg/mL"}, {"measurement": "IC50", "setting": "[3]", "result": "725.44 ± 0.15", "unit": "µg/mL"}, {"measurement": "Mean diameter of inhibition zone (Mean ± SEM)", "setting": "C. albicans RCMB 005036", "result": "–"}, {"measurement": "Mean diameter of inhibition zone (Mean ± SEM)", "setting": "B. subtilis RCMB 010067 [5]; 1 mg/mL", "result": "–"}, {"measurement": "Mean diameter of inhibition zone (Mean ± SEM)", "setting": "[6]; 1 mg/mL", "result": "–"}, {"measurement": "Mean diameter of inhibition zone (Mean ± SEM)", "setting": "S. pneumonia RCMB 010010 [7]; 1 mg/mL", "result": "–"}, {"measurement": "Mean diameter of inhibition zone (Mean ± SEM)", "setting": "E. coli RCMB 010052 [8]; 1 mg/mL", "result": "–"}, {"measurement": "antimicrobial activity, overall", "setting": "[13]", "result": "no antimicrobial activities"}, {"measurement": "Mean diameter of inhibition zone (Mean ± SEM)", "setting": "A. fumigatus RCMB 002568 [9]; 1 mg/mL", "result": "–"}, {"measurement": "melting point", "result": "295 to 297", "unit": "°C"}]}]}
